{"source": "patent US12643899B2", "about": "“Antiviral agents, uses thereof and methods for their preparation” (The University of British Columbia, priority 2020, dated 2026)", "key": {"ZIKV [1]": {"test_system": "ZIKV", "assay": "NS1 and dsRNA in ZIKV-infected brain organoids", "format": "cell-based, Zika virus", "conditions": "10 μM, 69 hours, MOI 1", "protocol": "FIG. 17 is a schematic showing the general method 20 used in Example 6. Referring to FIG. 17, following growth of the brain organoids in STEMdiff™ media 22 (4 organoids/well), the media was aspirated 24. Then, 500 μL ZIKV at the desired MOI in fresh media was added 26 and the brain organoids incubated at 37° C. for 3 hours with gentle shaking 28. The brain organoids were then washed with 2×1 mL PBS 30, and fresh media and CA or cladoniamide C (CC) added to the desired concentration 32 prior to incubation for the desired time at 37° C. 34. The supernatant was collected and frozen at −86° C. 36 prior to analysis and the brain organoids transferred to an Eppendorf with paraformaldehyde for electron microscopy 38.\nFIG. 18 is a plot showing the anti-ZIKV activity of cladoniamide A (incubation with 1 μM CA for 72 hours; 2 biological replicates, each with 4 organoids/well) using four brain organoid systems. There was a greater than 4-log reduction in extracellular ZIKV titer when treated with CA. […] FIGS. 20 and 21 show plots showing the anti-ZIKV activity of CA and CC (incubation with 10 μM CA or CC for 69 hours, MOI 1; 4 technical replicates as there were 4 organoids/[…])."}, "ZIKV [2]": {"test_system": "ZIKV", "assay": "ZIKV viral dsRNA imaging (Cellomics ArrayScan VTI) in A549 cells", "format": "cell-based, Zika virus", "conditions": "15 μM, 1 h pre-treatment, MOI 1, 48 h"}, "ZIKV [3]": {"test_system": "ZIKV", "assay": "ZIKV infectivity by semisolid overlay plaque assay after pre-treatment of A549 and U87 MG cells", "format": "cell-based, Zika virus", "conditions": "CD 15 μM, A549 and U87 MG cells, FIG. 3"}, "DENV": {"test_system": "DENV", "assay": "Activity against DENV (summary statement, method not described)", "format": "cell-based, dengue virus"}, "SARS-CoV-2": {"test_system": "SARS-CoV-2", "assay": "SARS-CoV-2 intracellular viral RNA and nucleocapsid protein in Caco-2 cells", "format": "cell-based", "conditions": "Human Caco-2 cells, 3 hours pre-treatment"}, "ZIKV [4]": {"test_system": "ZIKV", "assay": "Secreted NS1 (sNS1) ELISA, ZIKV-infected A549 cells", "format": "cell-based, Zika virus", "conditions": "24 h pre-treatment, MOI 1.0, 2 d", "protocol": "Error bars represent SD among 2 biological replicates.\nCultured A549 cells were treated with various concentrations of CA or PF-429242 for 24 h before being washed with PBS and inoculated with ZIKV (ZIKV strain VR 1843, Puerto Rico, 2015; ATCC) at MOI 1.0 for 1 h. Following the removal of the inoculum, cells were incubated in fresh media for 2 d before the supernatant was collected, clarified, and secreted NS1 protein abundance was measured by an ELISA kit (BioFront Technologies) according to the manufacturer's instructions. Curve fitting was performed in Igor Pro (WaveMetrics) using a hyperbolic fit algorithm (FIG. 4; upper and middle plots) and IC50 and TI values obtained. IC50 and TI values were also obtained for CA via plaque assay (PFU; FIG. 4, lower plot). FIG. 4 (upper plot) is an ED50 curve for the PF inhibitor based on the detection of secreted Non-Structural protein 1 (sNS1), secreted viral biomarker. sNS1 was detected using an Elisa test (commercially available). FIG. 4 (middle plot) is an ED50 curve for CA based on the detection of secreted Non-Structural protein 1 (sNS1), secreted viral biomarker. sNS1 was detected using an Elisa test (commercially available)."}, "A549 cells": {"test_system": "A549 cells", "assay": "MTS cytotoxicity assay in A549 cells", "format": "cell-based, human", "conditions": "48 h", "protocol": "An MTS assay was performed to determine the cytotoxicity concentration 50% (CC50) of cladoniamide A (CA) in human A549 cells, a cell line from human lung carcinoma. Various concentrations of CA were added to cultured A549 cells and incubated (37° C., 5% CO2) for 48 h. Cell viability was then measured by an MTS assay kit (CellTiter 96™ Aqueous One Solution cell proliferation assay, Promega) according to the manufacturer's instructions. Curve fitting was performed in Igor Pro (WaveMetrics) using a hyperbolic fit algorithm (FIG. 1). The CC50 of CA in A549 cells was determined to be 54±5 μM. An MTS assay was also performed to determine the CC50 of CA in human U87 MG cells, a cell line from human brain. Various concentrations of CA were added to cultured U87 MG cells and incubated (37° C., 5% CO2) for 48 h. Cell viability was then measured by an MTS assay kit (CellTiter 96 Aqueous One Solution cell proliferation assay, Promega) according to the manufacturer's instructions. Curve fitting was performed in Igor Pro (WaveMetrics) using a hyperbolic fit algorithm (FIG. 2)."}}}
{"compound": "COc1c2n(c3ccccc13)[C@]1(O)C(=O)N(C)C(=O)[C@]1(O)c1c-2[nH]c2ccccc12", "note": "[CC, (11S,15R)-11,15-dihydroxy-23-methoxy-13-methyl-3,13,16-triazahexacyclo[14.7.0.0^2,10.0^4,9.0^11,15.0^17,22]tricosa-1(23),2(10),4,6,8,17,19,21-octaene-12,14-dione]", "values": [{"measurement": "anti-ZIKV activity in brain organoids (NS1, dsRNA)", "setting": "ZIKV [1]", "result": "showed anti-ZIKV activity"}]}
{"compound": "CNC(=O)[C@]1(O)C(=O)c2c([nH]c3ccc(Cl)cc23)-c2c(OC)c3ccccc3n21", "note": "[CD, (12R)-7-chloro-12-hydroxy-20-methoxy-N-methyl-11-oxo-3,13-diazapentacyclo[11.7.0.0^2,10.0^4,9.0^14,19]icosa-1(20),2(10),4(9),5,7,14,16,18-octaene-12-carboxamide]", "values": [{"measurement": "activity against ZIKV (viral dsRNA)", "setting": "ZIKV [2]", "result": "did not show any inhibitory effect"}, {"measurement": "inhibitory effect on production of infectious ZIKV virions", "setting": "ZIKV [3]", "result": "did not show any inhibitory effect"}, {"measurement": "activity against DENV", "setting": "DENV", "result": "no activity"}, {"measurement": "antiviral effect against SARS-CoV-2", "setting": "SARS-CoV-2", "result": "no antiviral effect"}]}
{"compound": "CNC(=O)[C@]1(O)C(=O)c2c([nH]c3ccc(Cl)cc23)-c2c(OC)c3cc(Cl)ccc3n21", "note": "[CE, (12R)-7,17-dichloro-12-hydroxy-20-methoxy-N-methyl-11-oxo-3,13-diazapentacyclo[11.7.0.0^2,10.0^4,9.0^14,19]icosa-1(20),2(10),4(9),5,7,14(19),15,17-octaene-12-carboxamide]", "values": [{"measurement": "activity against ZIKV (viral dsRNA)", "setting": "ZIKV [2]", "result": "did not show any inhibitory effect"}]}
{"compound": "CNC(=O)[C@@]1(O)C(=O)n2c(c(OC)c3ccccc32)-c2[nH]c3ccc(Cl)cc3c21", "note": "[CF, (11R)-7-chloro-11-hydroxy-20-methoxy-N-methyl-12-oxo-3,13-diazapentacyclo[11.7.0.0^2,10.0^4,9.0^14,19]icosa-1(20),2(10),4(9),5,7,14,16,18-octaene-11-carboxamide]", "values": [{"measurement": "activity against ZIKV (viral dsRNA)", "setting": "ZIKV [2]", "result": "did not show any inhibitory effect"}]}
{"compound": "CCN(CC)Cc1ccc(C(=O)N(CCc2ccccc2OC)[C@@H]2CCNC2)cc1", "note": "[PF, PF-429242, reference compound]", "values": [{"measurement": "IC50", "setting": "ZIKV [4]", "result": 13, "unit": "µM"}, {"measurement": "CC50", "setting": "A549 cells", "result": 69, "unit": "µM"}]}
